Source: US12077503B2, “Substituted cyclic amides and their use as herbicides” (FMC CORPORATION, priority 2015, dated 2024)

Columns and labels:
Type in all cases: in vivo
[1] = system: barnyardgrass (Echinochloa crus-galli); test: Test G Pre-Emergence Protocol; settings: Echinochloa crus-galli, pre-emergence, 312 h, evaluated after 13 days; for pest or weed control at 15.625 g/ha: 15.625 g ai/ha, read-out: Barnyard grass damage rating (100=total damage to plant; 0=no damage to plant); for pest or weed control at 62.5 g/ha: 62.5 g ai/ha, 100=total damage to plant, 0=no damage to plant, read-out: plant damage rating, Barnyardgrass; for pest or weed control at 250 g/ha: 250 g ai/ha, read-out: Barnyardgrass damage rating (100=total damage to plant; 0=no damage to plant)
Method in brief: (§1)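 Test compound in 0.5% Tween 20 acetone/water (50:50) was applied at three rates (15.625, 62.5, 250 g/ha) to soil sown one day earlier. After 13 days plants were scored for injury, where 0 means unaffected and 100 means completely damaged.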

[2] = system: redroot pigweed (Amaranthus retroflexus); test: Test G Pre-Emergence Protocol; settings: Amaranthus retroflexus, pre-emergence, 312 h, evaluated after 13 days; for pest or weed control at 15.625 g/ha: 15.625 g ai/ha; for pest or weed control at 15.625 g/ha / pest or weed control at 250 g/ha: read-out: Pigweed, Redroot damage rating (100=total damage to plant; 0=no damage to plant); for pest or weed control at 62.5 g/ha: 62.5 g ai/ha, 100=total damage to plant, 0=no damage to plant, read-out: plant damage rating, Pigweed, Redroot; for pest or weed control at 250 g/ha: 250 g ai/ha
Method in brief: as §1

corn (Zea mays) [3] = test: Test G Pre-Emergence Protocol; settings: Zea mays, pre-emergence, 312 h, evaluated after 13 days; for plant injury at 15.625 g/ha: 15.625 g ai/ha; for plant injury at 15.625 g/ha / plant injury at 250 g/ha: read-out: Corn damage rating (100=total damage to plant; 0=no damage to plant); for plant injury at 62.5 g/ha: 62.5 g ai/ha, 100=total damage to plant, 0=no damage to plant, read-out: plant damage rating, Corn; for plant injury at 250 g/ha: 250 g ai/ha
Method in brief: as §1

[4] = system: velvetleaf (Abutilon theophrasti); test: Test G Pre-Emergence Protocol; settings: Abutilon theophrasti, pre-emergence, 312 h, evaluated after 13 days; for pest or weed control at 15.625 g/ha: 15.625 g ai/ha; for pest or weed control at 15.625 g/ha / pest or weed control at 250 g/ha: read-out: Velvetleaf damage rating (100=total damage to plant; 0=no damage to plant); for pest or weed control at 62.5 g/ha: 62.5 g ai/ha, 100=total damage to plant, 0=no damage to plant, read-out: plant damage rating, Velvetleaf; for pest or weed control at 250 g/ha: 250 g ai/ha
Method in brief: as §1

[5] = system: ivy-leaved morning glory (Ipomoea hederacea); test: Test G Pre-Emergence Protocol; settings: Ipomoea, pre-emergence, 312 h, evaluated after 13 days; for pest or weed control at 15.625 g/ha: 15.625 g ai/ha, read-out: Morning-glory, Ivy-leaved damage rating (100=total damage to plant; 0=no damage to plant); for pest or weed control at 62.5 g/ha: 62.5 g ai/ha, 100=total damage to plant, 0=no damage to plant, read-out: plant damage rating, Morningglory, Ivy-leaved; for pest or weed control at 250 g/ha: 250 g ai/ha, read-out: Morningglory, Ivy-leaved damage rating (100=total damage to plant; 0=no damage to plant)
Method in brief: as §1

[6] = system: giant foxtail (Setaria faberi); test: Test G Pre-Emergence Protocol; settings: Setaria faberi, pre-emergence, 312 h, evaluated after 13 days; for pest or weed control at 15.625 g/ha: 15.625 g ai/ha; for pest or weed control at 15.625 g/ha / pest or weed control at 250 g/ha: read-out: Foxtail, Giant damage rating (100=total damage to plant; 0=no damage to plant); for pest or weed control at 62.5 g/ha: 62.5 g ai/ha, 100=total damage to plant, 0=no damage to plant, read-out: plant damage rating, Foxtail, Giant; for pest or weed control at 250 g/ha: 250 g ai/ha
Method in brief: as §1

[7] = system: barnyardgrass (Echinochloa crus-galli); test: Test G Post-Emergence Protocol; settings: Echinochloa crus-galli, post-emergence, 312 h; for pest or weed control at 15.625 g/ha: 15.625 g ai/ha, evaluated after 13 days (100=total damage to plant; 0=no damage to plant), read-out: Barnyardgrass damage rating; for pest or weed control at 62.5 g/ha: 62.5 g ai/ha, read-out: Barnyardgrass damage rating (100=total damage to plant; 0=no damage to plant); for pest or weed control at 62.5 g/ha / pest or weed control at 250 g/ha: evaluated after 13 days; for pest or weed control at 250 g/ha: 250 g ai/ha, read-out: damage to plant, Barnyardgrass (100=total damage to plant; 0=no damage to plant)
Method in brief: (§2)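 Values are percent visual injury at 13 days after treatment (0 none, 100 total). Treatment was a post-emergence spray at 15.625, 62.5 or 250 g/ha on 8-day-old pot plants kept at 24/16 °C.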

[8] = system: redroot pigweed (Amaranthus retroflexus); test: Test G Post-Emergence Protocol; settings: Amaranthus retroflexus, post-emergence, 312 h; for pest or weed control at 15.625 g/ha: 15.625 g ai/ha, evaluated after 13 days (100=total damage to plant; 0=no damage to plant), read-out: Pigweed, Redroot damage rating; for pest or weed control at 62.5 g/ha: 62.5 g ai/ha, read-out: Pigweed, Redroot damage rating (100=total damage to plant; 0=no damage to plant); for pest or weed control at 62.5 g/ha / pest or weed control at 250 g/ha: evaluated after 13 days; for pest or weed control at 250 g/ha: 250 g ai/ha, read-out: damage to plant, Pigweed, Redroot (100=total damage to plant; 0=no damage to plant)
Method in brief: as §2

corn (Zea mays) [9] = test: Test G Post-Emergence Protocol; settings: Zea mays, post-emergence, 312 h; for plant injury at 15.625 g/ha: 15.625 g ai/ha, evaluated after 13 days (100=total damage to plant; 0=no damage to plant), read-out: Corn damage rating; for plant injury at 62.5 g/ha: 62.5 g ai/ha, read-out: Corn damage rating (100=total damage to plant; 0=no damage to plant); for plant injury at 62.5 g/ha / plant injury at 250 g/ha: evaluated after 13 days; for plant injury at 250 g/ha: 250 g ai/ha, read-out: damage to plant, Corn (100=total damage to plant; 0=no damage to plant)
Method in brief: as §2

[10] = system: velvetleaf (Abutilon theophrasti); test: Test G Post-Emergence Protocol; settings: Abutilon theophrasti, post-emergence, 312 h; for pest or weed control at 15.625 g/ha: 15.625 g ai/ha, evaluated after 13 days (100=total damage to plant; 0=no damage to plant), read-out: Velvetleaf damage rating; for pest or weed control at 62.5 g/ha: 62.5 g ai/ha, read-out: Velvetleaf damage rating (100=total damage to plant; 0=no damage to plant); for pest or weed control at 62.5 g/ha / pest or weed control at 250 g/ha: evaluated after 13 days; for pest or weed control at 250 g/ha: 250 g ai/ha, read-out: damage to plant, Velvetleaf (100=total damage to plant; 0=no damage to plant)
Method in brief: as §2

[11] = system: ivy-leaved morning glory (Ipomoea hederacea); test: Test G Post-Emergence Protocol; settings: Ipomoea, post-emergence, 312 h; for pest or weed control at 15.625 g/ha: 15.625 g ai/ha, evaluated after 13 days (100=total damage to plant; 0=no damage to plant), read-out: Morningglory, Ivy-leaved damage rating; for pest or weed control at 62.5 g/ha: 62.5 g ai/ha, read-out: Morningglory, Ivy-leaved damage rating (100=total damage to plant; 0=no damage to plant); for pest or weed control at 62.5 g/ha / pest or weed control at 250 g/ha: evaluated after 13 days; for pest or weed control at 250 g/ha: 250 g ai/ha, read-out: damage to plant, Morningglory, Ivy-leaved (100=total damage to plant; 0=no damage to plant)
Method in brief: as §2

[12] = system: giant foxtail (Setaria faberi); test: Test G Post-Emergence Protocol; settings: Setaria faberi, post-emergence, 312 h; for pest or weed control at 15.625 g/ha: 15.625 g ai/ha, evaluated after 13 days (100=total damage to plant; 0=no damage to plant), read-out: Foxtail, Giant damage rating; for pest or weed control at 62.5 g/ha: 62.5 g ai/ha, read-out: Foxtail, Giant damage rating (100=total damage to plant; 0=no damage to plant); for pest or weed control at 62.5 g/ha / pest or weed control at 250 g/ha: evaluated after 13 days; for pest or weed control at 250 g/ha: 250 g ai/ha, read-out: damage to plant, Foxtail, Giant (100=total damage to plant; 0=no damage to plant)
Method in brief: as §2

Structure (SMILES) | pest or weed control at 15.625 g/ha [1] | pest or weed control at 62.5 g/ha [1] | pest or weed control at 250 g/ha [1] | pest or weed control at 15.625 g/ha [2] | pest or weed control at 62.5 g/ha [2] | pest or weed control at 250 g/ha [2] | plant injury at 15.625 g/ha (corn (Zea mays) [3]) | plant injury at 62.5 g/ha (corn (Zea mays) [3]) | plant injury at 250 g/ha (corn (Zea mays) [3]) | pest or weed control at 15.625 g/ha [4] | pest or weed control at 62.5 g/ha [4] | pest or weed control at 250 g/ha [4] | pest or weed control at 15.625 g/ha [5] | pest or weed control at 62.5 g/ha [5] | pest or weed control at 250 g/ha [5] | pest or weed control at 15.625 g/ha [6] | pest or weed control at 62.5 g/ha [6] | pest or weed control at 250 g/ha [6] | pest or weed control at 15.625 g/ha [7] | pest or weed control at 62.5 g/ha [7] | other results
Cc1ncc(NC(=O)[C@@H]2C(=O)N(C)C[C@H]2c2ccc(C(F)(F)F)cc2)s1 (racemic) [Compound 1595] | 0% | 0% | 0% | 0% | 0% | 0% | 0% | 0% | 0% | 0% | 0% | 0% | 0% | 0% | 0% | 0% | 0% | 0% | 10% | 10% | pest or weed control at 250 g/ha [7]: 10%; pest or weed control at 15.625 g/ha [8]: 0%; pest or weed control at 62.5 g/ha [8]: 10%; pest or weed control at 250 g/ha [8]: 20%; plant injury at 15.625 g/ha (corn (Zea mays) [9]): 0%; plant injury at 62.5 g/ha (corn (Zea mays) [9]): 60%; plant injury at 250 g/ha (corn (Zea mays) [9]): 0%; pest or weed control at 15.625 g/ha [10]: 0%; pest or weed control at 62.5 g/ha [10]: 10%; pest or weed control at 250 g/ha [10]: 10%; pest or weed control at 15.625 g/ha [11]: 0%; pest or weed control at 62.5 g/ha [11]: 60%; pest or weed control at 250 g/ha [11]: 20%; pest or weed control at 15.625 g/ha [12]: 0%; pest or weed control at 62.5 g/ha [12]: 0%; pest or weed control at 250 g/ha [12]: 10%
COc1cccc(NC(=O)[C@@H]2C(=O)N(C)C[C@H]2c2ccc(C(F)(F)F)cc2)n1 (racemic) [Compound 1601] | 0% | 10% | 70% | 0% | 0% | 50% | 0% | 0% | 0% | 0% | 0% | 0% | 0% | 0% | 0% | 0% | 20% | 80% | 0% | 40% | pest or weed control at 250 g/ha [7]: 70%; pest or weed control at 15.625 g/ha [8]: 0%; pest or weed control at 62.5 g/ha [8]: 10%; pest or weed control at 250 g/ha [8]: 30%; plant injury at 15.625 g/ha (corn (Zea mays) [9]): 0%; plant injury at 62.5 g/ha (corn (Zea mays) [9]): 10%; plant injury at 250 g/ha (corn (Zea mays) [9]): 30%; pest or weed control at 15.625 g/ha [10]: 0%; pest or weed control at 62.5 g/ha [10]: 20%; pest or weed control at 250 g/ha [10]: 50%; pest or weed control at 15.625 g/ha [11]: 0%; pest or weed control at 62.5 g/ha [11]: 10%; pest or weed control at 250 g/ha [11]: 30%; pest or weed control at 15.625 g/ha [12]: 0%; pest or weed control at 62.5 g/ha [12]: 80%; pest or weed control at 250 g/ha [12]: 70%
